Tests used:
Assay type in all cases: in vivo
[1] = tested on: Echinochloa crus-galli var. formosensis; assay: Test Example 6: herbicidal effect test by application during growth period of paddy rice; details: Echinochloa crus-galli, 7 days after sowing, 7.5 g per 10 ares, 14 days after application, read-out: weed inhibition rate
Method: Herbicidal Effect Test by Application During Growth Period of Paddy Rice
(§1) Wagner pots with an area of […] were filled with paddy soil, followed by addition of water and incorporation of chemical fertilizer (N:P:K=16:16:16), after which puddling was performed. After that, seeds of Echinochloa crus-galli var. formosensis, broad-leaved weeds (Lindemia pyxidaria, and Monochoria vaginalis), and Scirpus juncoides were sown at a depth of 0 cm to 1 cm, 30 seeds each. Immediately after sowing, the pots were flooded and a water depth of approximately 3 cm was maintained. Subsequent management was conducted in a glass greenhouse. Seven days after sowing, an emulsifiable concentrate prepared according to Formulation Example 5 using the compound shown below was diluted with water, and a specified amount of the diluted solution was applied by dropper. The amount of the active ingredient to be applied was equivalent to 7.5 g per 10 ares. The test was conducted in duplicate for each chemical concentration group, and the herbicidal effect was evaluated 14 days after chemical application using the same criteria as in Test Example 1.

[2] = tested on: Digitaria ciliaris; assay: Test Example 3: herbicidal effect test by soil application in upland field; details: Digitaria ciliaris, 1 day after sowing, 120 g per 10 ares, 14 days after application, read-out: weed inhibition rate
Summary of the method: (§2)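 Twenty seeds per weed species were mixed into the top 1 cm of alluvial loam in pots. One day after sowing, an emulsifiable concentrate diluted in water was sprayed on the soil surface at 120 g active ingredient per 10 ares.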

[3] = tested on: Echinochloa crus-galli; assay: as above; details: Echinochloa crus-galli, 1 day after sowing, 120 g per 10 ares, 14 days after application, read-out: weed inhibition rate
Summary of the method: as §2

[4] = tested on: Amaranthus viridis; assay: as above; details: Amaranthus viridis, 1 day after sowing, 120 g per 10 ares, 14 days after application, read-out: weed inhibition rate
Summary of the method: as §2

[5] = tested on: Echinochloa crus-galli; assay: Test Example 8: herbicidal effect test by stem and leaf treatment in upland field; details: Echinochloa crus-galli, 7 days after sowing, 7.5 g per 10 ares, 14 days after application, read-out: weed inhibition rate
Method: Herbicidal Effect Test by Stem and Leaf Treatment in Upland Field
Pots with an area of 36 cm^2 were filled with upland soil (alluvial loam), twenty seeds each of weeds of Digitaria ciliaris, Echinochloa crus-galli, Chenopodium album, and Amaranthus viridis were uniformly mixed with the top 1 cm layer of soil and the surface was lightly pressed down. Seven days after sowing, an emulsifiable concentrate prepared according to Formulation Example 5 using the compound shown below was diluted with water, and the diluted solution was sprayed onto the soil surface at a rate of 100 liters per 10 ares. The amount of the active ingredient to be applied was equivalent to 7.5 g per 10 ares. Fourteen days after chemical application, the herbicidal effect was evaluated according to the same criteria as in Test Example 1.

[6] = tested on: Echinochloa crus-galli var. formosensis; assay: Test Example 5: herbicidal effect test by soil application in paddy rice; details: Echinochloa crus-galli, 336 h, 7.5 g per 10 ares, 14 days after application, read-out: weed inhibition rate
Method: Herbicidal Effect Test by Soil Application in Paddy Rice
as §1, with “Immediately thereafter,” for “Seven days after sowing,”, “ares.” for “ares. The test was conducted in duplicate for each chemical concentration group, and the herbicidal effect was evaluated 14 days after chemical application using the same criteria as in Test Example 1.”
The present test was conducted in duplicate for each chemical concentration group, and the herbicidal effect was evaluated 14 days after chemical application using the same criteria as in Test Example 1.

[7] = tested on: Digitaria ciliaris; assay: Test Example 4: herbicidal effect test by stem and leaf treatment in upland field; details: Digitaria ciliaris, 7 days after sowing, 120 g per 10 ares, 14 days after application, read-out: weed inhibition rate
Summary of the method: (§3)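 Weeds sown in alluvial loam and sprayed 7 days after sowing with a water-diluted emulsifiable concentrate at 100 L per 10 ares, equivalent to 120 g active ingredient per 10 ares.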

[8] = tested on: Echinochloa crus-galli; assay: as above; details: Echinochloa crus-galli, 7 days after sowing, 120 g per 10 ares, 14 days after application, read-out: weed inhibition rate
Summary of the method: as §3

[9] = tested on: Echinochloa crus-galli var. formosensis; assay: Test Example 2: herbicidal effect test by application during growth period of paddy rice; details: Echinochloa crus-galli, 7 days after sowing, 120 g per 10 ares, 14 days after application, read-out: weed inhibition rate
Summary of the method: (§4)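 Flooded paddy-soil pots (about 3 cm water) sown with 30 seeds per weed species and kept in a greenhouse. Emulsifiable concentrate applied by dropper seven days after sowing at 120 g active ingredient per 10 ares, in duplicate. Herbicidal effect scored 14 days after application.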

[10] = tested on: Scirpus juncoides; assay: as above; details: Schoenoplectiella juncoides, 7 days after sowing, 120 g per 10 ares, 14 days after application, read-out: weed inhibition rate
Summary of the method: as §4

CCOC(C)O[C@H]1C[C@]2(C)O[C@@]1(C(C)C)C[C@H]2OCc1ccccc1F (stereo partly drawn) [1-213, (1R,2S,4S,5R)-2-(1-ethoxyethoxy)-5-((2-fluorobenzyl)oxy)-1-isopropyl-4-methyl-7-oxabicyclo[2.2.1]heptane]
≥ 80%: inhibition at 75 g/ha [1] | inhibition at 1200 g/ha [2] | inhibition at 1200 g/ha [3] | inhibition at 1200 g/ha [4] | inhibition at 75 g/ha [5] | inhibition at 75 g/ha [6] | inhibition at 1200 g/ha [7] | inhibition at 1200 g/ha [8] | inhibition at 1200 g/ha [9] | inhibition at 1200 g/ha [10]

From patent publication US20260327240A1, “1,4-CINEOLE DERIVATIVE AND INTERMEDIATE THEREOF, HERBICIDE CONTAINING SAID DERIVATIVE AS ACTIVE INGREDIENT, METHOD FOR USING HERBICIDE, AND METHOD FOR PREPARING AGROCHEMICAL COMPOSITION” (HOKKO CHEMICAL INDUSTRY CO., LTD., priority 2023, published 2026)
